Assay results reported in patent US8445006B2, “Biomolecular coating for implants” (Georgia Tech Research Corporation, priority 2006, dated 2013).

What was measured:
[1] = test system: bone marrow stromal cells; test: Centrifugation cell adhesion assay on poly(OEGMA) brush titanium surfaces; type: cell-based, rat; conditions: poly(OEGMA) brushes, 0.9 pmol/cm^2 ligand; for cell adhesion, no antibody: serum exposure
Procedure: Cell adhesion to functionalized and untreated titanium surfaces was measured using a centrifugation assay that applies controlled detachment forces. […] Control titanium slides were coated with 10% FBS (to model serum protein adsorption) or blocking buffer (5% non-fat dry milk in PBS to produce a non adhesive support). Stromal cells were loaded with the fluorescent dye calcein-AM (2 μg/ml, Molecular Probes), detached using trypsin+EDTA, and resuspended serum-free in PBS with 2 mM dextrose. Cells were seeded onto the substrates (10,000 cells/well) for 1 h at 37° C. […] After filling the wells with PBS/dextrose and sealing with transparent adhesive tape, substrates were inverted and spun at a fixed speed in a centrifuge (Beckman Allegra 6, GH 3.8 rotor) to apply a centrifugal force corresponding to 12 g. After centrifugation, media was exchanged and fluorescence intensity was read to measure remaining adherent cells. For each well, adherent cell fraction was calculated as the ratio of post-spin to pre-spin fluorescence readings.
In vitro evaluation of these engineered titanium surfaces was performed using primary rat bone marrow stromal cells since this heterogeneous population contains osteoprogenitors, and human bone marrow stromal cells are currently used in clinical applications. Cell adhesion was examined using a centrifugation assay that applies a controlled detachment force. […] As a complementary test of integrin specificity, integrin binding was quantified using a biochemical cross-linking/extraction/reversal technique.

FAK = FAK phosphorylation on ligand-tethered brush surfaces with integrin blocking antibodies; type: cell-based, rat; conditions: for effect of integrin blocking antibodies on FAK phosphorylation: anti-α5 and anti-β3 antibodies
Procedure: Cells were detached and gently agitated in serum-free suspension for 45 min to reduce background. Cells were then seeded at 200 cells/mm^2 serum-free for 1 h. Cells were lysed in RIPA buffer (1% Triton X-100, 1% sodium deoxycholate, 0.1% SDS, 150 mM NaCl, 150 mM Tris-HCl (pH 7.2), 350 μg/ml PMSF, 10 μg/ml leupeptin, and 10 μg/ml aprotonin) for 20 min on ice. Samples were pipetted up and down 20 times and centrifuged at 8000 g for 10 min to shear DNA and isolate protein contents. Total protein was quantified using micro-BCA (Pierce). Equal amounts of protein were boiled for 10 min in Laemmli buffer and separated by SDS-PAGE on a 7% gel, transferred to nitrocellulose membranes, and blocked with Blotto (5% nonfat dry milk, 0.20% Tween-20) overnight at 4° C. Membranes were gently rocked in antibodies against FAK and specific phosphorylated FAK tyrosine residues (anti-total FAK at 1 μg/ml, anti-FAK pY397 at 0.35 μg/ml, anti-FAK pY576 at 0.5 μg/ml) for 1 h. After washing with TBS-Tween (20 mM Tris HCl pH 7.6, 137 mM NaCl, 0.1% Tween-20), secondary antibody (biotin-conjugated anti-rabbit IgG; 1:20,000) was added for 1 h, followed by alkaline phosphatase-conjugated anti-biotin antibody (1:10,000) in Blotto. Immunoreactivity was assessed by ECF fluorescent substrate. FAK bands were visualized by a Fuji Image Analyzer and phosphorylation levels normalized to total FAK.
FAK is an intracellular signaling molecule involved in integrin-mediated signal transduction and the osteogenic differentiation pathway. Phosphotyrosine-specific antibodies were used to examine the activation state of three important tyrosines in FAK: Y397 (autophosphorylation site), Y576 (essential for maximal kinase activity), and Y861 (major Src phosphorylation site) (FIG. 13C). […] These differences in integrin binding specificity and FAK activation modulate cell signaling pathways and higher order cellular activities.

MC3T3-E1 cells = test: Centrifugation cell adhesion assay on ligand-tethered SAMs; type: cell-based, murine; conditions: for ADH50 (ligand density required for half-maximal adhesion): ligand tethered to SAMs, MC3T3-E1
Procedure: MC3T3-E1 murine immature osteoblast-like cells (Riken Cell Bank, Hirosawa, Japan) were used because of their expression of multiple integrins, including alpha5beta1, alpha2beta1, and alphaVbeta3. Cells were maintained at 37° C. in α-MEM supplemented with 10% FBS and 1% penicillin-streptomycin and passaged every 2-3 days via standard culture techniques.
Self-assembled monolayers (SAMs) of alkanethiols on gold were used to present well-defined, ordered surfaces with anchoring groups within a non-fouling background. Tri(ethylene glycol)-terminated alkanethiol (HS—(CH2)11—(OCH2CH2)3—OH; EG3) and carboxylic acid-terminated alkanethiol (HS—(CH2)11—(OCH2CH2)6—OCH2COOH; EG6-COOH) were previously synthesized and characterized. Gold-coated substrates were prepared by sequential deposition of titanium (100 Å) and gold (200 Å) films via an electron beam evaporator (Thermionics Laboratories, Hayward, Calif., 2×10^−6 Torr, 1 A/s) onto clean 6-well plate lids or glass coverslips. Mixed SAM surfaces were prepared on substrates by immersing in a 1.0 mM mixed solution of EG3/EG6-COOH thiols (4 h). Peptide ligands were tethered using standard peptide chemistry. Briefly, following washing in ethanol and ultrapure H2O, SAMs were incubated in 2.0 mM EDC and 5.0 mM NHS in 0.1 M 2-(N-morpho)-ethanesulfonic acid and 0.5 M NaCl (pH 6.0), and subsequently immersed in a 20 mM solution of 2-mercaptoethanol in deionized H2O. Adhesive ligands in PBS were then incubated on the activated supports for 30 min and the unreacted surface NHS esters were then quenched in 20 mM glycine. Finally, the surfaces were blocked in 1% heat-denatured bovine serum albumin (BSA) and then incubated overnight in DPBS to reduce nonspecific protein adsorption.
A modification of a centrifugation assay was used to apply controlled detachment forces to cells adhering to engineered surfaces. Multi-wells of engineered surfaces were created on gold-coated polystyrene plate lids using silicone gaskets (Grace Bio-Labs, Bend, Oreg.). Mixed SAMs were assembled and ligands tethered at varying densities. MC3T3-E1 cells were labeled with […] calcein-AM, a membrane-permeable green fluorescent dye, in 2 mM dextrose-DPBS for 30 min and resuspended in α-MEM with 10% FBS. Cells were seeded onto the surfaces at 200 cells/mm^2, and allowed to attach for 1 h at 37° C. For blocking antibody experiments, cells were incubated in the presence of function-perturbing antibodies (10 μg/ml) for 10 min with gentle agitation prior to cell seeding. Before centrifugation, cell images were taken using a Nikon TE-300 fluorescence microscope and Spot RT digital camera. Wells were then filled completely with dextrose-PBS, sealed, inverted, and centrifuged for 5 min at a prescribed speed on a Beckman Allegra 6 centrifuge (GH 3.8 rotor) to apply normal detachment forces. Media was then gently aspirated from the wells, and wells were refilled for post-spin image collection. Post/pre-spin cell ratios were determined by image analysis, and this adhesive fraction was plotted against ligand surface density to obtain cell adhesion profiles.

[2] = vs RGD-functionalized brushes and serum-exposed titanium
[3] = maximum ligand density, normalized to unblocked controls

| Substance | cell adhesion with anti-αv antibody [1] | cell adhesion with blocking anti-α5 antibody [1] | cell adhesion, no antibody [1] | effect of integrin blocking antibodies on FAK phosphorylation (FAK) | FAK Y397 phosphorylation (FAK; [2]) | FAK Y576 phosphorylation (FAK; [2]) | ADH50 (ligand density required for half-maximal adhesion) (MC3T3-E1 cells) [fmol/cm^2] | adhesion with blocking antibodies against α5β1 integrin (MC3T3-E1 cells; [3]) | reduction of adhesion by antibodies against β3 integrin subunit (MC3T3-E1 cells; [3]) | FAK Y861 phosphorylation (FAK; relative to FNIII7-10-tethered surface) |
| --- | --- | --- | --- | --- | --- | --- | --- | --- | --- | --- |
| FNIII7-10: monobiotinylated recombinant fibronectin fragment spanning the 7-10th type III repeats of fibronectin; α5β1 integrin ligand | had no effect | completely eliminated cell adhesion | high levels of cell adhesion | blocking antibodies against α5, but not β3, reduced the levels of phospho-Y397 and Y576 | higher phosphorylation levels | higher phosphorylation levels | 70 | reduced adhesion to background levels | did not alter adhesion significantly | – |
| GRGDSPC [RGD peptide, linear RGD oligopeptide purchased from BACHEM; primarily supports αvβ3-mediated adhesion, reference compound] | eliminated adhesion | – | high levels of cell adhesion | only the anti-β3 antibody reduced FAK phosphorylation | – | – | 2300 | only slightly reduced adhesion | – | elevated |
